1 compound from ChEMBL document CHEMBL3638596, “Protease inhibitors” (2014) can be followed below.

The target of test [1] is Cathepsin S (Homo sapiens, UniProt P25774). Put plainly: Enzyme Assay: The assay uses baculovirus-expressed human cathepsin S and the boc-Val-Leu-Lys-AMC fluorescent substrate available from Bachem in a 384 well plate format, in which 7 test compounds can be tested in parallel with a positive control comprising a known cathepsin S inhibitor comparator. […] 2 μl of each 10 mM test compound is added to a separate well on row A, columns 1-10. Add 90 μl assay buffer containing 1 mM DTT and 2 nM cathepsin S to each well of rows B-H and 180 μl to row A.
Cathepsin S, sequence (P25774 whole entry): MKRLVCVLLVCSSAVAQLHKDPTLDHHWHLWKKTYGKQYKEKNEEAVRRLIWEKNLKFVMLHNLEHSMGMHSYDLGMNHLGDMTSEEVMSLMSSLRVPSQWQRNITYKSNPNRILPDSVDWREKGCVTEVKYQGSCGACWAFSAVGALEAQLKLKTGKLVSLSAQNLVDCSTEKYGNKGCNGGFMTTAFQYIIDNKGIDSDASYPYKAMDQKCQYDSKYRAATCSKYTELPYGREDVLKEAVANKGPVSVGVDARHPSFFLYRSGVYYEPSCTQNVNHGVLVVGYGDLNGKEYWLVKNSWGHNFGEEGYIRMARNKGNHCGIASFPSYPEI

Test [2] has as its target T1, Cathepsin K (Homo sapiens, UniProt P43235).
T1 sequence (P43235 whole entry): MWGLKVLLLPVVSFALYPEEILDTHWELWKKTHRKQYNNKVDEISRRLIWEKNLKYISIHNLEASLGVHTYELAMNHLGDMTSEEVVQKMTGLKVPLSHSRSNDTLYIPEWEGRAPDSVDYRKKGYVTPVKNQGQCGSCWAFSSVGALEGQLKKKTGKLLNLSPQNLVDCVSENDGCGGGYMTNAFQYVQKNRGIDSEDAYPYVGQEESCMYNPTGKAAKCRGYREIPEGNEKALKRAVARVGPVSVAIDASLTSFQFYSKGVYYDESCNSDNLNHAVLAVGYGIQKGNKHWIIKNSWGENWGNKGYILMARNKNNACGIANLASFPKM
The experiment in a line: Enzyme Assay: Standard assay conditions for the determination of kinetic constants used a fluorogenic peptide substrate, typically H-D-Ala-Leu-Lys-AMC, and were determined in either 100 mM Mes/Tris, pH 7.0 containing 1 mM EDTA and 10 mM 2-mercaptoethanol or 100 mM Na phosphate, imM EDTA, 0.1% PEG4000 pH 6.5 or 100 mM Na acetate, pH 5.5 containing 5 mM EDTA and 20 mM cysteine, in each case optionally with […] as stabiliser. The enzyme concentration used was 5 nM. The stock substrate solution was prepared at 10 mM in DMSO. Screens were carried out at a fixed substrate concentration of 60 μM and detailed kinetic studies with doubling dilutions of substrate from 250 μM. The total DMSO concentration in the assay was kept below 3%. All assays were conducted at ambient temperature. Product fluorescence (excitation at 390 nm, emission at 460 nm) was monitored with a Labsystems Fluoroskan Ascent fluorescent plate reader.

As to `C#C[C@@H]1CN(C(=O)[C@@H](NC(=O)c2ccc(-c3nc(N4CCN(C)CC4)sc3F)cc2)C2CCCC2)[C@@H]2C(=O)CO[C@H]12`, the Ki (as a rule, a dissociation constant, usually derived from enzyme kinetics or from competition with a known ligand) in test [1] stood at 2900 nM; in test [2], 0.6 nM.
